Results published in US20190323025A1, “COMPOSITIONS AND METHODS FOR DELIVERY OF MOLECULES TO PLANTS” (BLOOMSBURG UNIVERSITY OF PENNSYLVANIA, priority 2018, published 2019).

How the values were obtained:
[1] = tested on: AvsYS1 avenic acid/Fe+3 transporter; assay: Yeast growth assay in liquid medium with phytosiderophore/Fe+3 complex as the only available iron, strain DEY1453 transformed with pJKD1 (pYES2/AvsYS1) or pYES2; assay type: cell-based, Avena sativa; conditions: for growth of yeast with transporter (DEY1453:pJKD1, 53K): S. cerevisiae DEY1453:pJKD1 (pYES2/AvsYS1), YNB minimal medium pH 7.5, BPDS, iron only as Fe+3 complexed with the substance
Source text: AvsYS1 (Genbank FJ477297.1) was isolated using 5′RACE from the roots of iron starved oats (Avena sativa). Primers were designed by comparing one functionally confirmed phytosiderophore/Fe^+3 transporter (HvYS1) and other iron transport proteins. After obtaining a full-length clone, we subcloned the gene (AvsYS1) into a yeast galactose inducible expression vector (pYES2). The resultant plasmid was designated pJKD1. We obtained a yeast strain that lacks the ability to take up ferric iron and transformed it with pYES2 and pJKD1. The transformants were grown under identical conditions in which the only iron available was in the Fe^+3/avenic acid complex.
We engineered the AvsYS1 gene into a galactose inducible expression systems vector (pYES2). Our first major result was the functional confirmation of the AvsYS1 gene. We transformed pYES2 and pJKD1 (pYES2/AvsYS1) into a strain of S. cerevisiae (DEY1453) that lacks the ability to take up Fe^3+. In the process, we developed a new assay based on growth in liquid medium. The advantage of this assay over more traditional assays used in yeast-based PS/Fe^+3 assays is that it is quantifiable. Other assays (e.g., Murata, 2006) grow yeast on a solid plate, and qualitative growth of colonies is used. With our assay, we can generate numerical data based on the density as measured by the absorbance at 600 nm. […] Further detail is provided below.
53Y=DEY1453:pYES2 (no transporter) 53K=DEY1453:pJKD1 (pYES2/AvsYS1 [transporter]) DOB—Complete medium, supplemented w/FeSo4, ampicillin 50 YNB-minimal medium, pH7.5, BPDS (ferrous chelator), ampicillin,
Protocols included: 53Y and 53K in DOB+FeSO4, 53Y and 53K in YNB supplemented with Avenic acid; 53Y and 53K supplemented with BPA-1-068B; 53Y and 53K in YNB w/ no supplements; uninoculated YNB; uninoculated DOB.
53Y=DEY1453:pYES2 (no transporter) 53K=DEY1453:pJKD1 (pYES2/AvsYS1 [transporter]) DOB—Complete medium, supplemented w/FeSo4, ampicillin 50 YNB-minimal medium, pH7.5, BPDS (ferrous chelator), ampicillin, Ø=no supplementation
Protocols included: 53Y and 53K, supplemented with Avenic acid, 53Y and 53K supplemented with BPA-1-068B, 53Y and 53K in YNB w/ no supplements.
3Y=DEY1453:pYES2 (no transporter) 3K=DEY1453:pJKD1 (pYES2/AvsYS1 [transporter]) Strains grown in YNB/Gal, pH 7.5, Amp50, Avenic acid: Fe^+3, 5:1
Another interesting observation was made in relation to growth of the DEY1453:pJKD1 using one of the analogs complexed with Fe^+3. […] This was a very significant result because it provided strong (though not dispositive) evidence in support of our Trojan Horse delivery technology.

[2] = tested on: Micro-Tom tomatoes, AvsYS1 transformants (MT*) and untransformed (MT); assay: Hydroponic growth of Micro-Tom tomatoes under iron limiting conditions with iron provided as FeCl3/avenic acid; assay type: in vivo, tomato; conditions: Hoagland's solution (-Fe), pH 7.4, 10 μM FeCl3 complexed with 15 μM avenic acid
Source text: RNA was isolated from […]. A cDNA (AvsYSl) was isolated and its functionality confirmed as a phytosiderophore/Fe^+3 transporter that mitigates the effects of Iron Deficiency Chlorosis in transgenic Micro-Tom™ tomatoes when the nutrient medium is supplemented with the oat phytosiderophore, avenic acid. […] Final confirmation of the AvsYS1 transporter's functionality was obtained by comparing Micro-Tom™: AvsYS1 (MT*) transformants with non-transgenic Micro-Tom™ grown hydroponically under iron limiting conditions. (See, e.g., Shikata et al. (2016) “Micro-Tom tomato as an alternative plant model system: mutant collection and efficient transformation” Methods Mol. Biol. 1363:47-55.) Samples were grown in Hoagland's solution (—Fe) at pH 7.4. Iron was provided as 10 μM FeCl3/15 μM avenic acid. Tomatoes normally optimally grow at pH 5.6-6.8. Sample 3 was labelled MT*. This was a Micro-Tom™ variety was transformed with Fe+3/avenic acid transporter isolated from roots of iron starved oats. Sample 4 was an untransformed Micro-Tom™ (MT) plant.
MT* tomatoes grew robustly in Hoagland's solution at a pH of 7.4 supplemented with iron was provided at 10 μM FeCl3 complexed with 15 μM avenic acid.

SMILES | growth of yeast with transporter (DEY1453:pJKD1, 53K) [1] | growth of yeast with transporter (DEY1453:pJKD1, 53K) ([1]; listed as drawing 7) | growth rate of DEY1453:pJKD1 ([1]; ferric iron supplied with the analog, compared to DEY1453:pYES2 controls) | uptake by the avenic acid transporter ([1]; yeast, in the presence of iron) | growth of MT* (AvsYS1 transformed) tomatoes ([2]; 16 days) | iron deficiency chlorosis in untransformed (MT) tomatoes ([2]; after 16 days) | growth of yeast without transporter (DEY1453:pYES2, 53Y) ([1]; S. cerevisiae DEY1453:pYES2 (no transporter), iron only as Fe+3/avenic acid complex)
O=C(CC(NCCC(NCC[C@H](O)C(=O)O)C(=O)O)C(=O)O)OCc1ccccc1 (stereo partly drawn) [BPA-1-068B] | able to grow | impressive | slower, but undeniably robust | able to be taken up |  |  | 
O=C(O)C(CO)NCCC(NCC[C@H](O)C(=O)O)C(=O)O (stereo partly drawn) [MGS-2-128BF] | supported growth as well as avenic acid |  |  |  |  |  | 
O=C(O)[C@H](CCO)NCC[C@H](NCC[C@H](O)C(=O)O)C(=O)O [avenic acid, Avenic Acid] | able to grow vigorously |  |  |  | grew robustly | Iron deficiency chlorosis was observed in new leaves | could not
